Laboratory results taken from patent US20180200308A1, “METHODS OF TREATING COLITIS” (priority 2015, published 2018).

What was measured:
DSS-induced colitis = format: in vivo
Description: To further examine the effect of antibiotic and a BSC on ulcerative colitis, the DSS model described supra was used with the addition of arms evaluating vancomycin as the sole antibiotic. In this experiment, three-week-old male C57B1/6 mice, 15 per group (9 in the Naïve control group), were treated according to the Table 2.
Either vancomycin (Groups 5 and 6) or an antibiotic mixture (Groups 7 and 8) was administered to mice in their drinking water prior to receiving treatment to evaluate the effect on BSC efficacy. Mice were dosed by oral gavage with either PBS (Groups 2, 5, and 7) or BSC (Groups 6 and 8) three times per week starting on Day 9 and continuing through the end of the study (Day 38). Group 4 was dosed with a BSC three times per week starting on Day 0. On days 28-32, mice were exposed to 2% DSS in their drinking water (Groups 2-8) and observed until Day 38. Periodic measurements included body weight and clinical scores. On Day 38, animals were euthanized and features of the colon were evaluated including weight, length, and gross pathology. Colon samples were prepared for histopathology and scored by a pathologist blinded to treatment group and the nature of the Test Item.

TNBS-induced colitis = assay: TNBS model of colitis with and without broad-spectrum antibiotic or vancomycin pretreatment (Example 5); format: in vivo, Balb/c mice
Description: Additional experiments were carried out using the TNBS model (described supra) using a BSC in combination with an antibiotic. In these experiments, three-week-old male Balb/c mice, 24 per group (9 in the naïve control group), were treated according to Table 4.
Either vancomycin (Groups 5 and 6) or an antibiotic mixture (Groups 7 and 8) was administered to mice in their drinking water prior to receiving treatment to evaluate the effect on BSC efficacy (Groups 5-8). Mice were dosed by oral gavage with either PBS (Groups 2, 5, and 7) or BSC (Groups 6 and 8) three times per week starting on Day 7 and continuing through the end of the study (Day 35). Mice in group 4 received BSC three times per week by oral gavage starting on Day 0. On day 28, mice were anesthetized with isoflurane and received intracolonic 2% TNBS (Groups 2-8). Periodic measurements included body weight and clinical scores. On Day 35, animals were euthanized and gross pathology was evaluated. Colon samples were prepared for histopathology and scored by a pathologist blinded to treatment group and the nature of the Test Item.

[1] = vs Negative Control (Group 2), Day 38

## CN[C@H](CC(C)C)C(=O)N[C@H]1C(=O)N[C@@H](CC(N)=O)C(=O)N[C@H]2C(=O)N[C@H]3C(=O)N[C@H](C(=O)N[C@H](C(=O)O)c4cc(O)cc(O)c4-c4cc3ccc4O)[C@H](O)c3ccc(c(Cl)c3)Oc3cc2cc(c3O[C@@H]2O[C@H](CO)[C@@H](O)[C@H](O)[C@H]2O[C@H]2C[C@](C)(N)[C@H](O)[C@H](C)O2)Oc2ccc(cc2Cl)[C@H]1O [Vancomycin, vancomycin]
DSS-induced colitis; compared to naïve mice
  colon pathology (gross pathology and histopathology scores): worsening in colon pathology
DSS-induced colitis; vs Negative Control
  protection against DSS-induced disease / pathology: significant protection
DSS-induced colitis; vs Negative Control (Group 2)
  clinical score: reduced clinical scores
  colon pathology (overall): overall improvement in colon pathology
  colon weight: reduced colon weight
  maximal body weight loss / body weight loss (in words): significantly reduced
DSS-induced colitis; [1]
  colon length: increased colon length
  gross pathology score: improved
  histopathology score: improved
TNBS-induced colitis; antibiotic pretreatment alone
  protection against weight loss: no effect
TNBS-induced colitis; following TNBS induction, Positive Control = anti-IL12
  dead or euthanized / group size: 2/24
TNBS-induced colitis; following TNBS induction, Positive Control = anti-IL12, Negative Control 33%
  Mortality: 8%
TNBS-induced colitis; vs Negative Control Group 2, BSC p=0.14
  histopathology scores: not different
TNBS-induced colitis; vs Negative Control Group 2, Positive Control = anti-IL12
  clinical scores: not statistically improved
